ChEMBL document CHEMBL5512657, “Design, synthesis and evaluation of a pyrazolo[3,4-d]pyrimidine derivative as a novel and potent TGFβ1R1 inhibitor” (Eur J Med Chem, 2024)

Columns and labels:
TGF-beta receptor type-1 [1] = molecular target: T1, TGF-beta receptor type-1 (Mus musculus, UniProt Q64729); experiment: Inhibition of ALK5 signaling in mouse NIH3T3 cells transfected with (CAGA)12-luciferase reporter incubated for 18 hrs in presence of TGF-beta1 by dual-luciferase reporter assay; type: cell-based
T1 sequence (Q64729 whole entry): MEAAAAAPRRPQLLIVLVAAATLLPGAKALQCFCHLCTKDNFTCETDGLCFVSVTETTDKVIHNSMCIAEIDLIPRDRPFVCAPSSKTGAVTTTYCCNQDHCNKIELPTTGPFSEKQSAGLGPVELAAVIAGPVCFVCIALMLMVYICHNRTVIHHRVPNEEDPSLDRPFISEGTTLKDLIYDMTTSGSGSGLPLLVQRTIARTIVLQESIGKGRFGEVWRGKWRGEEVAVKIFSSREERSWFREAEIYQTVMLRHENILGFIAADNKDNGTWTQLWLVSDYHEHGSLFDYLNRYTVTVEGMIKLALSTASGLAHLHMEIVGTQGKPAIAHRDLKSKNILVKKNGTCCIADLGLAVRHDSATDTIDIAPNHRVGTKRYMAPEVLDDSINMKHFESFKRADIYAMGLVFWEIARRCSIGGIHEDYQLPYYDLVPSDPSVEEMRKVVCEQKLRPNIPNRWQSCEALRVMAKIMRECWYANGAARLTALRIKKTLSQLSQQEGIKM

[2] = molecular target: Voltage-gated inwardly rectifying potassium channel KCNH2 (Homo sapiens, UniProt Q12809); experiment: Inhibition of human ERG stably expressed in HEK293 cells by manual patch clamp method; type: toxicity, cell-based
Voltage-gated inwardly rectifying potassium channel KCNH2, sequence (Q12809 whole entry): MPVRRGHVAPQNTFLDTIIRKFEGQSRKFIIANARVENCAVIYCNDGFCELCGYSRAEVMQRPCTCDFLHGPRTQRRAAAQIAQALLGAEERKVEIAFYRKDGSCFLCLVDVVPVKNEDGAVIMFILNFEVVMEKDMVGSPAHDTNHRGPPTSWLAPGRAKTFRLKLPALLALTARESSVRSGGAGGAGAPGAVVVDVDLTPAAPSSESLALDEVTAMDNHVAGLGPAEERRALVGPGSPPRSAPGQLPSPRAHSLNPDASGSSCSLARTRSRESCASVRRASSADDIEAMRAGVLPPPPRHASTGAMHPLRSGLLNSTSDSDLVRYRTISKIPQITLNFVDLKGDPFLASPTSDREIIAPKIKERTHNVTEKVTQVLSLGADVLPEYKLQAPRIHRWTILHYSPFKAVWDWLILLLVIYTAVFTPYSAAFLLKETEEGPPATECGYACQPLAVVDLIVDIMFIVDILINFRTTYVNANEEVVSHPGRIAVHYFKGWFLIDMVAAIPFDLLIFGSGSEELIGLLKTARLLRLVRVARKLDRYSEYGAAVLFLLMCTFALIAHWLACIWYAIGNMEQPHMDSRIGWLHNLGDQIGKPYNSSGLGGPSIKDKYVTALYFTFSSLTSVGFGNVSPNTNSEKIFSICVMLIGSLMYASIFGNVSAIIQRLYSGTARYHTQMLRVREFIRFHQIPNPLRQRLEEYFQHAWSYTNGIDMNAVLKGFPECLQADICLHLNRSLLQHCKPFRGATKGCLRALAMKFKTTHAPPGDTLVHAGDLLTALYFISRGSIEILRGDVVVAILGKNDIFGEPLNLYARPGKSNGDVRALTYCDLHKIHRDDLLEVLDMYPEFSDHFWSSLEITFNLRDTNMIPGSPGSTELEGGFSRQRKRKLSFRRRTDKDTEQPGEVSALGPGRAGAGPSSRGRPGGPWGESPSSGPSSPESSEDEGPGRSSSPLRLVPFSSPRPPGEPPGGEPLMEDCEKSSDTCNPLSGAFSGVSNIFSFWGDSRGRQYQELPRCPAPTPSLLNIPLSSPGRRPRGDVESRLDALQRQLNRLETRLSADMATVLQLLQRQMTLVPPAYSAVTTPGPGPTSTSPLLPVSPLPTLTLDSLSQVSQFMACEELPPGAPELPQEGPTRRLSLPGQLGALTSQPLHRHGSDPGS

TGF-beta receptor type-1 [3] = molecular target: T2, TGF-beta receptor type-1 (Homo sapiens, UniProt P36897); experiment: Inhibition of TGFbetaR1 (unknown origin)
T2 sequence (P36897 whole entry): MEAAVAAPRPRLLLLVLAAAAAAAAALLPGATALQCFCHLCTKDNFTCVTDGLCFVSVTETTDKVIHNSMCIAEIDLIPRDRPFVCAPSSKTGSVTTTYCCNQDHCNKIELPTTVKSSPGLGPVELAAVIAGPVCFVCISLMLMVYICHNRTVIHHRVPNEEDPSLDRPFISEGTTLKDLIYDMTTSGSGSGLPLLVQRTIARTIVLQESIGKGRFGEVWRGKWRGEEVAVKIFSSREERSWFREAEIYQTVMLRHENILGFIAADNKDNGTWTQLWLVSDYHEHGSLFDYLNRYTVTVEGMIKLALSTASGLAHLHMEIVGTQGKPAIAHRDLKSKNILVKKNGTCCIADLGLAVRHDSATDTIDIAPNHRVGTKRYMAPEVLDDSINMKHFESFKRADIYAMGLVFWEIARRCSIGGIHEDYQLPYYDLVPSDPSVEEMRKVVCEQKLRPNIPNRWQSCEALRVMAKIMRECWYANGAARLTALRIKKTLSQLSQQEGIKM

TGF-beta receptor type-1 [4] = molecular target: T2, TGF-beta receptor type-1; experiment: Inhibition of ALK5 (unknown origin) incubated for 2 hrs in presence of ATP by ADP-Glo reagent based luminescence plate reader analysis
Panc02 [5] = experiment: cells; conditions: Mus musculus, Panc02, 72 h
U-251 = experiment: cells; conditions: Homo sapiens, U-251, 72 h
4T1 = experiment: cells; conditions: Mus musculus, 4T1, 72 h
in vitro [6] = conditions: human, MCF-10A cells
MV4-11 = experiment: cells; conditions: Homo sapiens, MV4-11, 72 h
MDA-MB-231 = experiment: cells; conditions: Homo sapiens, MDA-MB-231, 72 h
HepG2 = experiment: cells; conditions: Homo sapiens, HepG2, 72 h
in vitro [7] = conditions: human, L02 cells
in vitro [8] = conditions: human, HEK293T cells
in vitro [9] = conditions: human, BEAS-2B cells
Kasumi 1 = experiment: cells; conditions: Homo sapiens, Kasumi 1, 72 h
PANC-1 [10] = experiment: cells; conditions: Homo sapiens, PANC-1, 72 h
PANC-1 [11] = experiment: Antitumor activity against human PANC-1 xenografted in […] mouse model assessed as tumor growth inhibition at 10 mg/kg, ip administered every other day for 24 days relative to control; type: functional; conditions: PANC-1, 576 h, time 24 day, read-out: TGI
Panc02 [12] = experiment: Antitumor activity against mouse Panc02 cells implanted in C57BL/6J mouse model assessed as tumor growth inhibition at 10 mg/kg, ip administered every other day for 24 days relative to control; type: functional; conditions: Panc02, 576 h, time 24 day, read-out: TGI

SMILES | EC50 (TGF-beta receptor type-1 [1]) | further results
Nc1ncnc2c1c(-c1ccc3[nH]ccc3c1)nn2CCC1CCN(S(=O)(=O)c2cccs2)CC1 | 607 nM | 
CC(=O)N1CCC(CCn2nc(-c3ccc4c(c3)OCO4)c3c(N)ncnc32)CC1 | > 1000 nM | 
Nc1ncnc2c1c(-c1ccc3[nH]ccc3c1)nn2CCC1CCNCC1 | > 1000 nM | 
CC(C)S(=O)(=O)N1CCC(CCn2nc(-c3ccc4[nH]ccc4c3)c3c(N)ncnc32)CC1 | 131 nM | 
N#Cc1ccc(S(=O)(=O)N2CCC(CCn3nc(-c4ccc5[nH]ccc5c4)c4c(N)ncnc43)CC2)cc1 | > 1000 nM | 
CCS(=O)(=O)N1CCC(CCn2nc(-c3ccc4[nH]ccc4c3)c3c(N)ncnc32)CC1 | 90.8 nM | 
CCCCS(=O)(=O)N1CCC(CCn2nc(-c3ccc4[nH]ccc4c3)c3c(N)ncnc32)CC1 | 176 nM | 
CC(C)(C)OC(=O)N1CCCC(Cn2nc(-c3ccc4[nH]ccc4c3)c3c(N)ncnc32)C1 (centres undefined) | 689 nM | 
Nc1ncnc2c1c(-c1ccc3[nH]ccc3c1)nn2CCC1CCN(S(=O)(=O)c2cccnc2)CC1 | > 1000 nM | 
CC(=O)N1CCC(CCn2nc(-c3ccc4nccnc4c3)c3c(N)ncnc32)CC1 | > 1000 nM | 
CC(C)(C)OC(=O)N1CCC(CCn2nc(-c3ccc4[nH]ccc4c3)c3c(N)ncnc32)CC1 | 441 nM | 
CC(C)(C)OC(=O)N1CCC(Cn2nc(-c3ccc4[nH]ccc4c3)c3c(N)ncnc32)CC1 | 374 nM | 
COc1ccc(S(=O)(=O)N2CCC(CCn3nc(-c4ccc5[nH]ccc5c4)c4c(N)ncnc43)CC2)c(OC)c1 | > 1000 nM | 
CC(=O)N1CCC(CCn2nc(-c3ccc4[nH]ncc4c3)c3c(N)ncnc32)CC1 | 295 nM | 
CC(C)(C)OC(=O)N1CCN(CCn2nc(-c3ccc4[nH]ccc4c3)c3c(N)ncnc32)CC1 | 488 nM | 
Nc1ncnc2c1c(-c1ccc3[nH]ccc3c1)nn2CCC1CCN(S(=O)(=O)c2cc(Cl)ccc2Cl)CC1 | > 1000 nM | 
CC(=O)N1CCC(CCn2nc(-c3ccc4[nH]cc(C)c4c3)c3c(N)ncnc32)CC1 | 15.3 nM | IC50 [2]: 9870 nM
CC(C)(C)c1ccc(S(=O)(=O)N2CCC(CCn3nc(-c4ccc5[nH]ccc5c4)c4c(N)ncnc43)CC2)cc1 | > 1000 nM | 
CC(=O)N1CCC(CCn2nc(-c3ccc4ncccc4c3)c3c(N)ncnc32)CC1 | > 1000 nM | 
CC(=O)N1CCC(CCn2nc(-c3ccc4c(ccn4C)c3)c3c(N)ncnc32)CC1 | 283 nM | 
CC(=O)N1CCC(CCn2nc(-c3ccc4[nH]c(C)cc4c3)c3c(N)ncnc32)CC1 | 105 nM | 
CC(=O)Nc1cccc(-c2nn(CCC3CCN(C(C)=O)CC3)c3ncnc(N)c23)c1 | > 1000 nM | 
CC(=O)N1CCC(CCn2nc(-c3ccc4[nH]ccc4c3)c3c(N)ncnc32)CC1 | 29.6 nM | IC50 [2]: 11700 nM
Nc1ncnc2c1c(-c1ccc3[nH]ccc3c1)nn2-c1ccc2cc[nH]c2c1 | 525 nM | 
CC(C)(C)C(=O)N1CCC(CCn2nc(-c3ccc4[nH]ccc4c3)c3c(N)ncnc32)CC1 | 138 nM | 
Nc1ncnc2c1c(-c1ccc3[nH]ccc3c1)nn2CCC1CCN(S(=O)(=O)c2ccc(Cl)cc2Cl)CC1 | > 1000 nM | 
Nc1ncnc2c1c(-c1ccc3[nH]ccc3c1)nn2CCC1CCN(S(=O)(=O)c2ccccc2F)CC1 | 339 nM | 

SMILES | EC50 (TGF-beta receptor type-1 [1]) | further results
Cc1cccc(-c2nc(C34CCC(C(N)=O)(CC3)CC4)[nH]c2-c2ccc3c(c2)OCO3)n1 |  | IC50 (TGF-beta receptor type-1 [3]): 47 nM
Nc1ncnc2c1c(-c1ccc3[nH]ccc3c1)nn2CCC1CCN(S(=O)(=O)c2ccc3ccccc3c2)CC1 | 971 nM | 
C#CCCCC(=O)N1CCC(CCn2nc(-c3ccc4[nH]ccc4c3)c3c(N)ncnc32)CC1 | 465 nM | 
CC(C)(C)OC(=O)N1CCC(Cn2nc(-c3ccc4[nH]ccc4c3)c3c(N)ncnc32)C1 (centres undefined) | 363 nM | IC50 (TGF-beta receptor type-1 [4]): 155 nM
Cc1ccc(S(=O)(=O)N2CCC(CCn3nc(-c4ccc5[nH]ccc5c4)c4c(N)ncnc43)CC2)cc1 | 348 nM | 
Nc1ncnc2c1c(-c1ccc3[nH]ccc3c1)nn2CCC1CCN(S(=O)(=O)c2cccc(Cl)c2Cl)CC1 | 848 nM | 
Nc1ncnc2c1c(-c1ccc3[nH]ccc3c1)nn2CCC1CCN(S(=O)(=O)C2CC2)CC1 | 105 nM | 
CCCS(=O)(=O)N1CCC(CCn2nc(-c3ccc4[nH]ccc4c3)c3c(N)ncnc32)CC1 | 45.9 nM | 
CC(=O)N1CCC(CCn2nc(-c3ccc4ncsc4c3)c3c(N)ncnc32)CC1 | 130 nM | 
CC(C)(C)OC(=O)N1CCC(CCCn2nc(-c3ccc4[nH]ccc4c3)c3c(N)ncnc32)CC1 | 998 nM | 
CC(=O)c1nn(CCC2CCN(C(C)=O)CC2)c2ncnc(N)c12 | 485 nM | 
CC(=O)N1CCC(CCn2nc(-c3ccc(N)cc3C)c3c(N)ncnc32)CC1 | 302 nM | 
Nc1ncnc2c1c(-c1ccc3[nH]ccc3c1)nn2CCC1CCN(S(=O)(=O)c2cc(F)cc(F)c2)CC1 | > 1000 nM | 
COc1ccc(S(=O)(=O)N2CCC(CCn3nc(-c4ccc5[nH]ccc5c4)c4c(N)ncnc43)CC2)cc1 | 132 nM | 
COc1ccccc1C(=O)N1CCC(CCn2nc(-c3ccc4[nH]ccc4c3)c3c(N)ncnc32)CC1 | 665 nM | 
Nc1ncnc2c1c(-c1ccc3[nH]ccc3c1)nn2CCC1CCN(S(=O)(=O)c2cccc(Cl)c2)CC1 | 1320 nM | 
Nc1ncnc2c1c(-c1ccc3[nH]ccc3c1)nn2CCC1CCN(S(=O)(=O)c2ccc(C(F)(F)F)cc2)CC1 | 303 nM | 
Nc1ncnc2c1c(-c1ccc3[nH]ccc3c1)nn2CCC1CCN(C(=O)c2ccccc2)CC1 | 273 nM | 
CC(=O)N1CCC(CCn2nc(-c3cc4cc[nH]c4cc3C)c3c(N)ncnc32)CC1 | 403 nM | 
Nc1ncnc2c1c(-c1ccc3[nH]ccc3c1)nn2CCC1CCN(C(=O)OCc2ccccc2)CC1 | > 1000 nM | 
CC(=O)N1CCC(CCn2nc(-c3ccc4cc[nH]c4c3)c3c(N)ncnc32)CC1 | > 1000 nM | 
COc1cc(F)cc(-c2nn(CCC3CCN(C(C)=O)CC3)c3ncnc(N)c23)c1 | 430 nM | 
CC(C)(C)OC(=O)N1CC(Cn2nc(-c3ccc4[nH]ccc4c3)c3c(N)ncnc32)C1 | 750 nM | 
CC(=O)N1CCC(CCn2nc(-c3coc4ccccc34)c3c(N)ncnc32)CC1 | 682 nM | 
Nc1ncnc2c1c(-c1ccc3[nH]ccc3c1)nn2CCC1CCN(S(=O)(=O)c2ccccc2Cl)CC1 | 856 nM | 
Cc1cccc(-c2nn3c(c2-c2ccnc4ccc(C(N)=O)cc24)CCC3)n1 [GALUNISERTIB] |  | CC50 (Panc02 [5]): > 20000 nM; CC50 (U-251): 17000 nM; CC50 (4T1): > 20000 nM; CC50 at 72 h (in vitro [6]): 19900 nM; CC50 (MV4-11): > 20000 nM; CC50 (MDA-MB-231): > 20000 nM; CC50 (HepG2): 5460 nM; CC50 at 72 h (in vitro [7]): 17400 nM; CC50 at 72 h (in vitro [8]): > 20000 nM; CC50 at 72 h (in vitro [9]): 13000 nM; CC50 (Kasumi 1): 3120 nM; CC50 (PANC-1 [10]): > 20000 nM
Nc1ccn([C@@H]2O[C@H](CO)[C@@H](O)C2(F)F)c(=O)n1 [GEMCITABINE] |  | inhibition in vivo at 10 mg/kg (PANC-1 [11]): 82.2%; inhibition in vivo at 10 mg/kg (Panc02 [12]): 92.1%
